Drawing on PubChem BioAssay AID540268 (Broad Institute, 2011), this text covers AC50 and activity change, negative = inhibition for 98 compounds.

Activity calls are given as the source filed them. How the calls were made is not given here.

By AC50 is commonly meant the midpoint of the concentration-response curve, whichever way the signal moves.

The experiment in a line: growth inhibition of yeast carrying parasite Hsp90, dose response, anti-malarial Hsp90 inhibitor project, ATP luminescence, 48 h, cherry-picked samples (AID 540268).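 On activity change, negative = inhibition: 0% = neutral control wells and -100% = positive control wells.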 As to conditions: yeast expressing the parasite Hsp90, ATP luminescence; for activity change, negative = inhibition: at 26 µM (top of the series).

As to `CC(NC(=O)c1ccc(Br)cc1)c1ccc2c(c1)CCCC2` (stereo not drawn), the AC50 is 1.37 µM. As for `Cc1cc(C)c2c(N=NN(C)C)[nH]nc2n1`, the AC50 was 3.92 µM. On to `Cc1ccc(NC(=S)NCC23C=CC(O2)C2C(=O)N(c4ccc(C)cc4)C(=O)C23)cc1` (stereo not drawn), for which the AC50 is 8.61 µM. For `O=[N+]([O-])/C=C/c1cn(Cc2ccccc2)c2ccccc12`, the AC50 is 5.99 µM. The same measure, in the same setting: next, `Cc1ccc(C(=O)C(SC(C)(C)C)n2cncn2)cc1` (stereo not drawn): 4.25 µM; `Cc1ccc(N2C(=O)C3C4C=CC(CNC(=S)Nc5ccc(Cl)cc5)(O4)C3C2=O)cc1` (stereo not drawn): 11.9 µM. Take `Cc1cc(Br)c2c(c1)/C(=C/C(=O)c1cccs1)C(=O)N2`: the activity change, negative = inhibition is -12.3% (inactive).

Regarding `COc1ccc(C(=O)/C=C/C(=O)N(CC(=O)NC2CCCCC2)Cc2cccs2)c(O)c1`, the AC50 was 3.3 µM. On the same count and under the same terms, next, `CCCC1COC(Cn2cncn2)(c2ccc(C)cc2)O1` (stereo not drawn): 0.628 µM; `Cc1cc2ccccn2c1C(=O)c1ccc([N+](=O)[O-])o1`: 2.33 µM; `Cc1ccccc1CS(=O)(=O)c1nnc([C@H](Cc2ccccc2)NC(=O)OC(C)(C)C)o1`: 17.1 µM. As to `O=[N+]([O-])/C=C\c1ccc(N2CCCC2)c(F)c1`, the AC50 is 6.27 µM. As for `C=CCn1c(O)c(N=Nc2ccccc2O)c2ccccc21`, the AC50 was 8.15 µM. As to `Oc1c(C(c2ccccc2Cl)N2CCCC2)ccc2cccnc12` (stereo not drawn), the AC50 was 3.51 µM.

In the case of `CC[C@H](C)/C=C(C)/C=C/C1=CC2=C(Cl)C(=O)[C@](C)(OC(C)=O)C(=O)C2=CO1`, the AC50 was 2.11 µM. In the case of `O=C(Oc1ccc(Cl)c2cccnc12)c1cccnc1`, the AC50 was 7.85 µM. Consider `O=C(CCCNC(=O)c1ccc(Cl)cc1)OCc1cccc(Br)c1`, for which the AC50 was 4.54 µM. With `CCOC(=O)C1=C(CC)Nc2ccccc2N=C1NC(=O)Nc1ccc(Cl)c(Cl)c1`, the AC50 is 1.43 µM. Same read-out and setting: next, `O=C(Nc1nc(-c2ccco2)c(-c2ccco2)s1)c1ccco1`: 6.08 µM; `Cc1ccc(-c2cc(C(=O)N3N=C(C(F)F)CC3(O)C(F)F)c3ccccc3n2)cc1C` (stereo not drawn): 2.93 µM. As for `c1ccc(-c2c(-c3ccccc3)n(Cc3ccco3)c3ncnc(NCCCn4ccnc4)c23)cc1`, the AC50 was 1.83 µM.

As to `O=S(=O)(Nc1nc2ccccc2nc1N1CCN(c2ccccn2)CC1)c1ccc(Cl)cc1`, the AC50 is 8.25 µM. `O=C(N/N=C/c1ccccn1)c1cc(-c2ccc(Br)cc2)nc2ccccc12`: the AC50 is 5.33 µM.

Regarding `CC(=NNC(=S)N1CC2CCC(CC2)C1)c1ccncn1`, the AC50 is 2.36 µM.

For `O=C(CCN1C(=O)/C(=C/c2cccs2)SC1=S)NC1=NCCS1`, the activity change, negative = inhibition was 60.4% (inactive). With `CC(=NNC(=S)N1CC2CCC(CC2)C1)c1nccs1`, the AC50 is 25.7 µM.

Turning to `COC[C@H]1OC(=O)c2coc3c2[C@@]1(C)C1=C(C3=O)[C@@H]2CCC(=O)[C@@]2(C)C[C@H]1OC(C)=O`, the AC50 is 0.215 µM.

As to `Cc1cccc2cc(CN(Cc3nnnn3C3CCCCC3)C3CCCC3)c3nnnn3c12`, the AC50 is 2.2 µM. As for `O=[N+]([O-])c1cc(CN2CCN(c3cccc(C(F)(F)F)c3)CC2)c2cccnc2c1O`, the AC50 was 4.42 µM. As to `C[CH2][Hg][S]c1ccccc1C(=O)O`, the AC50 was 4.9 µM. `Cc1ccc(CNC(=O)c2ccc(Cn3nc(C)c(Cl)c3C)o2)cc1`: the AC50 was 7.23 µM. Regarding `O=C(Nc1cc(Cl)ccc1-n1cncn1)c1ccc([N+](=O)[O-])s1`, the AC50 was 4.2 µM.

With `CCN1/C(=C/c2ccc3cc(C)ccc3[n+]2CC)Sc2ccccc21`, the AC50 was 8.11 µM.

On to `COc1ccc2oc(/C=C/N(C)C)c(C(=O)c3ccc(Cl)cc3)c2c1`, for which the AC50 is 3.78 µM. Same read-out and setting: next, `CCC(=O)NC(c1cccs1)c1cc(Cl)c2cccnc2c1O` (stereo not drawn): 3.73 µM; `N/C(Cc1ccc(Cl)cc1)=N\OC(=O)c1cccc2ccccc12`: 2.19 µM. As for `COc1cc2c(cc1/C=C/[N+](=O)[O-])OCO2`, the AC50 is 3.11 µM. For the compound `Oc1c(C(Nc2ccccn2)c2cccnc2)cc(Cl)c2cccnc12` (stereo not drawn), the AC50 is 8.09 µM. As to `O=[N+]([O-])c1ccc2c(c1)-c1ccccc1C2=NO`, the AC50 is 2.72 µM. On the same count and under the same terms, the same measure for `CC1=CN2C(=N)/C(=C/c3ccc([N+](=O)[O-])o3)C(=O)N=C2S1`: 1.34 µM. `O=C(/C=C/c1ccccc1)CCN1CCCCC1`: the AC50 is 4.02 µM.

`F[B-](F)(F)c1cc2cc(Br)ccc2s1`: the AC50 was 6.2 µM. The same measure, in the same setting: next, `CCCCC(=O)NC(c1ccccc1OC)c1ccc2cccnc2c1O` (stereo not drawn): 4.45 µM; `CC(=O)N(C(C)=O)N1C(=O)/C(=C/c2ccc(Cl)cc2)SC1=S`: 3.28 µM. In the case of `CCCCCCCCNC(=O)/C(C#N)=C/c1ccccc1[N+](=O)[O-]`, the AC50 was 4.69 µM. As to `CCCCOc1ccc(C(=O)NNC(=S)NC(=O)CC)cc1`, the AC50 was 4.2 µM. With `CCCCCCCCCCC[N+](C)(C)CC/C=C1/c2ccccc2Sc2ccc(Cl)cc21`, the AC50 was 7.99 µM. The same measure, in the same setting: next, `Cc1c(N=Cc2cc(Br)cc(Br)c2O)cccc1C(=O)O`: 3.06 µM; `O=[N+]([O-])c1ccc(NC(=S)NCCc2ccc(Cl)cc2)cc1`: 4.25 µM. For the compound `COc1ccc(C(=O)N/N=C/c2sc3ccccc3c2O)cc1`, the AC50 was 2.35 µM. Turning to `CSc1ccccc1OCc1cc(C(=O)N2CCN(C)C(c3ccccc3)C2)no1` (stereo not drawn), the AC50 is 2.25 µM. Regarding `Cc1ccc(N2C(=O)C3C4C=CC(CNC(=S)Nc5ccc(F)cc5)(O4)C3C2=O)cc1` (stereo not drawn), the activity change, negative = inhibition is 9.97% (inactive). For `c1ccc(-c2cccc(-c3ccccn3)n2)nc1`, the AC50 was 1.03 µM.

For `O=C1NC(=S)S/C1=C\c1cc2ccccc2nc1N1CCCCC1`, the AC50 is 8.4 µM. For `O=c1cc(CSc2ccc(Cl)cc2)nc(-c2ccccn2)[nH]1`, the AC50 was 16.6 µM.

As for `Cc1ccc(-c2onc3ccc(C(=O)/C=C/N(C)C)cc23)cc1`, the AC50 is 5.98 µM. Turning to `O=C(Nc1ccccc1N1CCOCC1)c1ccc([N+](=O)[O-])s1`, the AC50 is 8.44 µM. Regarding `CC(=O)SC(C[N+](=O)[O-])c1cn(C(C)=O)c2ccccc12` (stereo not drawn), the half-maximal activity concentration (AC50) is 1.57 µM. Take `O=C1C2(Cl)C3(Cl)C4(Cl)C(Cl)(Cl)C5(Cl)C3(Cl)C1(Cl)C5(Cl)C24Cl` (stereo not drawn): the AC50 was 2.93 µM. Turning to `O=C1OC(c2ccccc2)(c2ccc3cc(O)ccc3c2)c2ccccc21` (stereo not drawn), the AC50 was 9.13 µM. The same measure, in the same setting: next, `O=C(C=Cc1ccccn1)c1ccccc1O`: 3 µM; `CC(=NNc1nc2ccccc2o1)c1cc2ccccc2cn1`: 17.7 µM. `O=C(/C=C/c1cccc([N+](=O)[O-])c1)c1ccc([N+](=O)[O-])o1`: the AC50 was less than 0.195 µM.

For the compound `Cc1cc(/C=C\c2ccc3cc(N(C)C)ccc3[n+]2C)c(C)n1-c1ccccc1`, the AC50 is 4.39 µM.

Regarding `CCCCCCCCCCCCCCCC[N+](C)(C)Cc1ccc(F)cc1`, the AC50 was 0.213 µM. The same measure, in the same setting: next, `Oc1ccc(O)c2c1C1(Cl)C(Cl)=C(Cl)C2(Cl)C1(Cl)Cl`: 3.87 µM. Consider `CSc1nc2ccc(S(=O)(=O)NC3CCCCC3)cc2s1`, for which the AC50 was 2.92 µM. On to `COc1cc(N(C)C)ccc1C=c1c2ccccc2n2c1cc(-c1ccccc1)[n+]2C`, for which the AC50 was 7.55 µM. Regarding `Cc1cc(C)c2c(N=NN3CCOCC3)[nH]nc2n1`, the AC50 was 7.65 µM. For `O=C1Nc2ccc(Br)cc2/C1=C/C1CC=CCC1` (stereo not drawn), the AC50 is 8.99 µM.

For the compound `Cc1cc(C(C)(C)CC(C)(C)C)ccc1OCCOCC[N+](C)(C)Cc1ccccc1`, the AC50 is 7.8 µM.

On to `CC(C)OC(=O)c1ccc(NCc2cc(O)ccc2O)cc1Cl`, for which the AC50 was 24.1 µM. As to `CC(C)c1ccc(-c2cc(C(=O)N3N=C(C(F)F)CC3(O)C(F)F)c3ccccc3n2)cc1` (stereo not drawn), the AC50 was 4.24 µM. Take `CC(C)(C)C(=O)C(Cl)C(=O)Nc1ccccc1` (stereo not drawn): the AC50 was 1.06 µM. On the same count and under the same terms, next, `CCN(CC)C(=S)SSC(=S)N(CC)CC`: 4.55 µM; `CCCCCCC(=O)N(O)C1CC(=O)N(c2ccc(Cl)cc2)C1=O` (stereo not drawn): 1.65 µM; `O=[N+]([O-])c1ccc(NC(c2ccccc2)c2ccc3cccnc3c2O)cc1` (stereo not drawn): less than 0.195 µM. For the compound `O=C1S/C(=C\c2ccc(N3CCOCC3)o2)C(=O)N1Cc1c(F)cccc1Cl`, the AC50 was 11.1 µM. On the same count and under the same terms, the same measure for `Cc1cccc(NC(=O)c2nc(S(=O)(=O)Cc3ccccc3)ncc2Cl)c1`: 3.15 µM; for `CCOc1ccc(N2C(=O)/C(=C\c3ccccc3OC)S(=O)(=O)C2c2cccc([N+](=O)[O-])c2)cc1` (stereo not drawn): 21.6 µM; for `CN1CCN(C(c2ccc(Br)cc2)c2cc(Cl)c3cccnc3c2O)CC1` (stereo not drawn): 0.535 µM. For the compound `CC(=NNC(=S)N1CCN(c2ccccn2)CC1)c1nccs1`, the AC50 was 2.58 µM. Still for that read-out and setting: next, `Cn1c(CNc2ccc(Cl)cc2)nnc1SCc1ccccc1`: 3.43 µM.

Take `Cc1ccc(S(=O)(=O)c2ccc([N+](=O)[O-])cn2)cc1`: the AC50 was 3.87 µM. As for `COC(=O)c1ccc(NC(=O)c2nc(S(=O)(=O)Cc3cccc(C)c3)ncc2Cl)cc1`, the AC50 was 3.99 µM. Regarding `N/C(Cc1ccc(Cl)cc1Cl)=N\OC(=O)c1cccs1`, the AC50 was 6.39 µM. With `CCOc1ccccc1N1CCN(C(=O)c2cccc(-c3ccc(O)cc3)c2)CC1`, the AC50 was 5.08 µM. Still for that read-out and setting: the same measure for `CCCCCCCCCCCCn1ccc(=N)cc1`: 7.7 µM. Turning to `O=C1C=CC(=O)N1c1ccc(Nc2ccccc2)cc1`, the AC50 is less than 0.195 µM. For `CCCc1ccc(Oc2cn[nH]c2-c2ccc(O)c(C)c2O)cc1`, the AC50 was 0.408 µM.

Regarding `COc1ccc(C(=O)/C=C/c2ccc(-c3ccccc3)cc2)cc1CSCC(=O)O`, the AC50 is 6.01 µM. As for `N/C(Cc1ccc(Cl)c(Cl)c1)=N\OC(=O)c1ccc(Br)o1`, the activity change, negative = inhibition is 66.7% (inactive). For the compound `CC(C)(C)SCCNC(=O)c1ccc(Cl)c([N+](=O)[O-])c1`, the AC50 is 4.37 µM. In the case of `CC(C)c1c(O)ccc2c1CC[C@H]1C(C)(C)CCC[C@]21C`, the AC50 is 2.86 µM. Regarding `COc1ccc2sc(-c3ccccc3OC)c(-c3ccc(O)cc3)c2c1`, the AC50 is 8.46 µM. Turning to `O=C(O)c1ccc(N/N=C/c2ccc(-c3cccc(Cl)c3)o2)cc1`, the AC50 was 8.69 µM.

For the compound `Cc1cccc(C)c1NC(=O)COC(=O)c1ccc([N+](=O)[O-])o1`, the activity change, negative = inhibition is -33.6% (inactive).

Consider `COc1ccc(NC(=O)C2CCCN2S(=O)(=O)c2cccc3cccnc23)c(OC)c1` (stereo not drawn), for which the AC50 is 1.31 µM.
